According to patent publication US20250354182A1, “BIOSYNTHESIS OF BIFUNCTIONAL TERPENOIDS” (The Regents of the University of California, priority 2024, published 2025):
“Also recorded” adds a separate entry of the source.

Assays:
[1] = tested on: E. coli NCM372; experiment: E. coli growth with 12a supplementation; type: cell-based, Escherichia coli
Method: (§1) FIG. 7: Bioactivity of farnesoic diacid. FIG. 7(a): E. coli NCM372 was grown to an optical density (OD600) of around 0.2, where either 12a in DMSO was added to final concentration of 10 μM (+) or DMSO was added (−). Three biological replicates are shown, and statistical significance using an unpaired t test is shown. FIG. 7(b): Immortalized baby mouse kidney (iBMK) cells were grown, either non-activated (D3) or Ras-activated (Ras). 12a in DMSO was added to final concentration of 10 μM (+) or DMSO was added (−). Three biological replicates are shown, and statistical significance using an unpaired t test is shown.
We supplemented cultures with 12a to a final concentration of 10 μM and monitored growth in both Escherichia coli (FIG. 6a) and mammalian cell lines (FIG. 6b). […] These findings provide evidence that farnesoic diacid and potentially our other newly discovered bifunctional terpenoids may have distinct bioactivities across diverse biological contexts, with applications in more efficient cultivation of microbes and selective activity against certain mammalian cells. As the longer bifunctional terpenoids (C25-C30) resemble oxylipin and polyunsaturated fatty acids, which are implicated in immunity and obesity, we reason that bioactivity may be related to lipid metabolism in mammalian systems that will be relevant in pharmaceutical contexts. Furthermore, the shorter bifunctional terpenoids (C15-C20) and their preceding biosynthetic intermediates resemble inhibitors of insect development, such as juvenile hormones, these molecules may serve as scaffolds for insecticide drug activity to target insect development. Further research on the novel molecules will illuminate more bioactivities on humans, human cells, research animals, plants, insects, and microorganisms.

[2] = tested on: Immortalized baby mouse kidney (iBMK) cells, non-activated (D3); experiment: iBMK cell growth with 12a, non-activated (D3); type: cell-based
Method: as §1
(§2) We supplemented cultures with 12a to a final concentration of 10 μM and monitored growth in both Escherichia coli (FIG. 6a) and mammalian cell lines (FIG. 6b). […] These findings provide evidence that farnesoic diacid and potentially our other newly discovered bifunctional terpenoids may have distinct bioactivities across diverse biological contexts, with applications in more efficient cultivation of microbes and selective activity against certain mammalian cells. As the longer bifunctional terpenoids (C25-C30) resemble oxylipin and polyunsaturated fatty acids, which are implicated in immunity and obesity, we reason that bioactivity may be related to lipid metabolism in mammalian systems that will be relevant in pharmaceutical contexts. […]

[3] = tested on: Immortalized baby mouse kidney (iBMK) cells, Ras-activated (Ras); experiment: iBMK cell growth with 12a, Ras-activated (Ras); type: cell-based
Method: as §1, §2

[4] = 12a 10 μM vs DMSO, 3 biological replicates

With `C/C(=C\CC/C(C)=C/C(=O)O)CC/C=C(\C)C(=O)O` [12a, farnesoic diacid] the “microbial cells grew faster with treatment” value ([1]; 12a 10 μM in DMSO vs DMSO, added at OD600 around 0.2, 3 biological replicates) was ~10%, the “final optical density” value ([1]; 12a 10 μM vs DMSO) was “higher final optical density” and the “microbial growth rate / cell growth” value ([1]; 12a 10 μM vs DMSO) was “increases microbial cell growth; also recorded: increased microbial growth rate”. The “total biomass content” value ([1]; farnesoic diacid treatment, FIG. 7) was “increased”, the “proliferation / cell growth” value ([2]; 12a 10 μM) was “decreases mammalian (cancer-like) cell growth; also recorded: modest decrease in proliferation” and the “cancer-like cell lines grew slower with treatment” value [2, 4] was ~10%. For the same compound, the “proliferation / cell growth” value ([3]; 12a 10 μM) was “decreases mammalian (cancer-like) cell growth; also recorded: modest decrease in proliferation” and the “cancer-like cell lines grew slower with treatment” value [3, 4] was ~10%.
